Test results published in PubChem BioAssay AID2060889 (Molecular Pharmacology Branch, DTP, NCI, 2025).

System: LG0567-F671-PDC complex spheroids viability
Experiment: Anticancer human tumor LG0567-F671-PDC patient-derived lung adenocarcinoma cell line growth inhibition [RAS]
Conditions: for IC50: curve of first compound; for viability, T/C: stronger effect = lower value
Method in brief: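 Multi-cell-type spheroids: tumor cells plus HUVEC endothelial cells and mesenchymal stem cells. RAS-pathway inhibitors were combined with targeted agents, each dosed in half-log steps down from clinical Cmax, or from 10 microM when Cmax was unknown.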

[1] = second compound 0.000949 µM, first compound 0.0316 µM
[2] = second compound 0.000949 µM, first compound 0.1 µM
[3] = second compound 0.000949 µM, first compound 0.316 µM
[4] = second compound 0.000949 µM, first compound 1 µM
[5] = second compound 0.003 µM, first compound 0.0316 µM
[6] = second compound 0.003 µM, first compound 0.1 µM
[7] = second compound 0.003 µM, first compound 0.316 µM
[8] = second compound 0.003 µM, first compound 1 µM
[9] = second compound 0.00949 µM, first compound 0.0316 µM
[10] = second compound 0.00949 µM, first compound 0.1 µM
[11] = second compound 0.00949 µM, first compound 0.316 µM
[12] = second compound 0.00949 µM, first compound 1 µM
[13] = second compound 0.03 µM, first compound 0.0316 µM
[14] = second compound 0.03 µM, first compound 0.1 µM
[15] = second compound 0.03 µM, first compound 0.316 µM
[16] = second compound 0.03 µM, first compound 1 µM
[17] = second compound 0.0949 µM, first compound 0.0316 µM
[18] = second compound 0.0949 µM, first compound 0.1 µM
[19] = second compound 0.0949 µM, first compound 0.316 µM
[20] = second compound 0.0949 µM, first compound 1 µM
[21] = second compound 0.3 µM, first compound 0.0316 µM
[22] = second compound 0.3 µM, first compound 0.1 µM
[23] = second compound 0.3 µM, first compound 0.316 µM
[24] = second compound 0.3 µM, first compound 1 µM
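Further: spheroids exposed to compound for seven days before readout.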
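Wherever IC50 is given: luminescence signal used as a proxy for viable cells.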

CC(C)n1nc(-c2ccc3oc(N)nc3c2)c2c(N)ncnc21 + C#Cc1c(F)ccc2cc(O)cc(-c3ncc4c(N5CC6CCC(C5)N6)nc(OCC56CCCN5CC(F)C6)nc4c3F)c12
IC50 (second compound 0.0316 µM): 19.6 nM
IC50 (second compound 0.1 µM): 17.8 nM
IC50 (second compound 0.316 µM): 1.32 nM
IC50 (second compound 1 µM): < 0.316 nM
IC50 (second compound 3.16 µM): < 0.316 nM
IC50 (second compound 10 µM): < 0.316 nM
viability, T/C (second compound 0.0316 µM, first compound 0.000316 µM): 90.7%
viability, T/C (second compound 0.0316 µM, first compound 0.001 µM): 77.8%
viability, T/C (second compound 0.0316 µM, first compound 0.00316 µM): 83.4%
viability, T/C (second compound 0.0316 µM, first compound 0.01 µM): 58.3%
viability, T/C (second compound 0.0316 µM, first compound 0.0316 µM): 44.3%
viability, T/C (second compound 0.0316 µM, first compound 0.1 µM): 34.1%
viability, T/C (second compound 0.1 µM, first compound 0.000316 µM): 73.3%
viability, T/C (second compound 0.1 µM, first compound 0.001 µM): 73.5%
viability, T/C (second compound 0.1 µM, first compound 0.00316 µM): 61.1%
viability, T/C (second compound 0.1 µM, first compound 0.01 µM): 58.2%
viability, T/C (second compound 0.1 µM, first compound 0.0316 µM): 43.2%
viability, T/C (second compound 0.1 µM, first compound 0.1 µM): 33%
viability, T/C (second compound 0.316 µM, first compound 0.000316 µM): 52.9%
viability, T/C (second compound 0.316 µM, first compound 0.001 µM): 48.9%
viability, T/C (second compound 0.316 µM, first compound 0.00316 µM): 49.1%
viability, T/C (second compound 0.316 µM, first compound 0.01 µM): 40.8%
viability, T/C (second compound 0.316 µM, first compound 0.0316 µM): 34.2%
viability, T/C (second compound 0.316 µM, first compound 0.1 µM): 28.5%
viability, T/C (second compound 1 µM, first compound 0.000316 µM): 36.7%
viability, T/C (second compound 1 µM, first compound 0.001 µM): 36.2%
viability, T/C (second compound 1 µM, first compound 0.00316 µM): 30.8%
viability, T/C (second compound 1 µM, first compound 0.01 µM): 24.9%
viability, T/C (second compound 1 µM, first compound 0.0316 µM): 22.3%
viability, T/C (second compound 1 µM, first compound 0.1 µM): 18.5%
viability, T/C (second compound 3.16 µM, first compound 0.000316 µM): 21.4%
viability, T/C (second compound 3.16 µM, first compound 0.001 µM): 19.9%
viability, T/C (second compound 3.16 µM, first compound 0.00316 µM): 20.1%
viability, T/C (second compound 3.16 µM, first compound 0.01 µM): 15.6%
viability, T/C (second compound 3.16 µM, first compound 0.0316 µM): 13.6%
viability, T/C (second compound 3.16 µM, first compound 0.1 µM): 9.08%
viability, T/C (second compound 10 µM, first compound 0.000316 µM): 11.7%
viability, T/C (second compound 10 µM, first compound 0.001 µM): 10.7%
viability, T/C (second compound 10 µM, first compound 0.00316 µM): 8.74%
viability, T/C (second compound 10 µM, first compound 0.01 µM): 9.19%
viability, T/C (second compound 10 µM, first compound 0.0316 µM): 6.42%
viability, T/C (second compound 10 µM, first compound 0.1 µM): 5.01%

C=CC(=O)Nc1cc(Nc2nccc(-c3cn(C)c4ccccc34)n2)c(OC)cc1N(C)CCN(C)C + CCn1c(-c2cccnc2C(C)OC)c2c3cc(ccc31)N1CCOC(CC(NC(=O)C(C(C)C)N(C)C(=O)C3(F)CCN(C(=O)C#CC(C)(C)N(C)C)CC3)C(=O)N3CCCC(N3)C(=O)OCC(C)(C)C2)C1
IC50 (second compound 0.000949 µM): < 3.16 nM
IC50 (second compound 0.003 µM): < 3.16 nM
IC50 (second compound 0.00949 µM): < 3.16 nM
IC50 (second compound 0.03 µM): < 3.16 nM
IC50 (second compound 0.0949 µM): < 3.16 nM
IC50 (second compound 0.3 µM): < 3.16 nM
viability, T/C (second compound 0.000949 µM, first compound 0.00316 µM): 15.6%
viability, T/C (second compound 0.000949 µM, first compound 0.01 µM): 14%
viability, T/C [1]: 12.5%
viability, T/C [2]: 9.48%
viability, T/C [3]: 14.1%
viability, T/C [4]: 3.07%
viability, T/C (second compound 0.003 µM, first compound 0.00316 µM): 13.4%
viability, T/C (second compound 0.003 µM, first compound 0.01 µM): 13.9%
viability, T/C [5]: 13%
viability, T/C [6]: 9.78%
viability, T/C [7]: 6.6%
viability, T/C [8]: 2.75%
viability, T/C (second compound 0.00949 µM, first compound 0.00316 µM): 20%
viability, T/C (second compound 0.00949 µM, first compound 0.01 µM): 12.7%
viability, T/C [9]: 11.6%
viability, T/C [10]: 9.64%
viability, T/C [11]: 6.15%
viability, T/C [12]: 7.2%
viability, T/C (second compound 0.03 µM, first compound 0.00316 µM): 12%
viability, T/C (second compound 0.03 µM, first compound 0.01 µM): 11.5%
viability, T/C [13]: 11.2%
viability, T/C [14]: 7.87%
viability, T/C [15]: 5.56%
viability, T/C [16]: 3.05%
viability, T/C (second compound 0.0949 µM, first compound 0.00316 µM): 10.1%
viability, T/C (second compound 0.0949 µM, first compound 0.01 µM): 10.9%
viability, T/C [17]: 10.2%
viability, T/C [18]: 9.54%
viability, T/C [19]: 5.79%
viability, T/C [20]: 2.57%
viability, T/C (second compound 0.3 µM, first compound 0.00316 µM): 12.4%
viability, T/C (second compound 0.3 µM, first compound 0.01 µM): 7.87%
viability, T/C [21]: 7.46%
viability, T/C [22]: 5.58%
viability, T/C [23]: 3.92%
viability, T/C [24]: 2.38%

CCC(CC)c1cc(NC2CCC(N)C2)n2nccc2n1 (stereo unspecified) + CCn1c(-c2cc(N3CCN(C)CC3)cnc2C(C)OC)c2c3cc(ccc31)-c1csc(n1)CC(NC(=O)C1CC1C)C(=O)N1CCCC(N1)C(=O)OCC(C)(C)C2
IC50 (second compound 0.000949 µM): < 31.6 nM
IC50 (second compound 0.003 µM): < 31.6 nM
IC50 (second compound 0.00949 µM): < 31.6 nM
IC50 (second compound 0.03 µM): < 31.6 nM
IC50 (second compound 0.0949 µM): < 31.6 nM
IC50 (second compound 0.3 µM): < 31.6 nM
viability, T/C [1]: 23.1%
viability, T/C [2]: 23.2%
viability, T/C [3]: 25.9%
viability, T/C [4]: 22.7%
viability, T/C (second compound 0.000949 µM, first compound 3.16 µM): 0.34%
viability, T/C (second compound 0.000949 µM, first compound 10 µM): 0.1%
viability, T/C [5]: 10.8%
viability, T/C [6]: 9.27%
viability, T/C [7]: 10.1%
viability, T/C [8]: 9.94%
viability, T/C (second compound 0.003 µM, first compound 3.16 µM): 0.21%
viability, T/C (second compound 0.003 µM, first compound 10 µM): 0.08%
viability, T/C [9]: 6.93%
viability, T/C [10]: 7.19%
viability, T/C [11]: 6.29%
viability, T/C [12]: 4.74%
viability, T/C (second compound 0.00949 µM, first compound 3.16 µM): 0.26%
viability, T/C (second compound 0.00949 µM, first compound 10 µM): 0.09%
viability, T/C [13]: 4.43%
viability, T/C [14]: 3.65%
viability, T/C [15]: 3.4%
viability, T/C [16]: 2.31%
viability, T/C (second compound 0.03 µM, first compound 3.16 µM): 0.18%
viability, T/C (second compound 0.03 µM, first compound 10 µM): 0.09%
viability, T/C [17]: 2.75%
viability, T/C [18]: 2.83%
viability, T/C [19]: 2.71%
viability, T/C [20]: 1.9%
viability, T/C (second compound 0.0949 µM, first compound 3.16 µM): 0.21%
viability, T/C (second compound 0.0949 µM, first compound 10 µM): 0.11%
viability, T/C [21]: 2.39%
viability, T/C [22]: 2.56%
viability, T/C [23]: 2.39%
viability, T/C [24]: 1.46%
viability, T/C (second compound 0.3 µM, first compound 3.16 µM): 0.22%
viability, T/C (second compound 0.3 µM, first compound 10 µM): 0.15%
